Data as given in ChEMBL document CHEMBL1201862, “PubChem BioAssay data set” (2004).
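Method: 48-hour compound exposure of cells in 96-well plates, five concentrations, linear interpolation of endpoints. GI50: concentration for 50% inhibition of growth.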 The source made the active and inactive calls. No stated cut-off is given here; in the data, active = GI50 up to about 1.1 µM and inactive = higher.

Experiments:
Assay in all cases: growth of human tumour cells (NCI), 48 h
SNB-19 = test system: SNB-19
NCI-H460 = test system: NCI-H460
OVCAR-5 = test system: OVCAR-5
U-251 = test system: U-251
SN12C = test system: SN12C
M14 = test system: M14
HCT-116 = test system: HCT-116
TK-10 = test system: TK-10
EKVX = test system: EKVX
PC-3 = test system: PC-3
RXF 393 = test system: RXF 393
HOP-92 = test system: HOP-92
HCC 2998 = test system: HCC 2998
NCI-H23 = test system: NCI-H23
MDA-MB-435 = test system: MDA-MB-435
HCT-15 = test system: HCT-15
MDA-MB-231 = test system: MDA-MB-231
OVCAR-8 = test system: OVCAR-8
NCI/ADR-RES = test system: NCI/ADR-RES

SMILES	GI50 (SNB-19)	GI50 (NCI-H460)	GI50 (OVCAR-5)	GI50 (U-251)	GI50 (SN12C)	GI50 (M14)	GI50 (HCT-116)	GI50 (TK-10)	GI50 (EKVX)	GI50 (PC-3)	GI50 (RXF 393)	GI50 (HOP-92)	GI50 (HCC 2998)	GI50 (NCI-H23)	GI50 (MDA-MB-435)	GI50 (HCT-15) [µM]	GI50 (MDA-MB-231)	GI50 (OVCAR-8)	GI50 (NCI/ADR-RES)
CCOC(=O)c1cc2cc(C)cc(C(=O)c3ccc([N+](=O)[O-])cc3)c2[nH]1	> 100 µM (inactive)	> 100 µM (inactive)	> 100 µM (inactive)	26.6 µM (inactive)	> 100 µM (inactive)	> 100 µM (inactive)	> 100 µM (inactive)	> 100 µM (inactive)	> 100 µM (inactive)	> 100 µM (inactive)	37.7 µM (inactive)	93.8 µM (inactive)	> 100 µM (inactive)	> 100 µM (inactive)	> 100 µM (inactive)	> 100	38.5 µM (inactive)		
O=C(Nc1cccc(F)c1)c1cc2ccc(O)cc2o/c1=N\c1cccc(F)c1	8.97 µM (inactive)	4.26 µM (inactive)	34 µM (inactive)	3.99 µM (inactive)	5.96 µM (inactive)	7.73 µM (inactive)	4.78 µM (inactive)		3.78 µM (inactive)	17.9 µM (inactive)			27.1 µM (inactive)	2.34 µM (inactive)	5.12 µM (inactive)	3.15		2.31 µM (inactive)	3.4 µM (inactive)
CNC(=O)CN(CC(=O)O)C(=O)NC	> 100 µM (inactive)		> 100 µM (inactive)	> 100 µM (inactive)		> 100 µM (inactive)		> 100 µM (inactive)	> 100 µM (inactive)		> 100 µM (inactive)	> 100 µM (inactive)	> 100 µM (inactive)	> 100 µM (inactive)		> 100		> 100 µM (inactive)	
CCOC(=O)CN1C(=O)C(=O)N(c2ccc(OC)c3ccccc23)C1=O	> 100 µM (inactive)		> 100 µM (inactive)	> 100 µM (inactive)	> 100 µM (inactive)	> 100 µM (inactive)	> 100 µM (inactive)	> 100 µM (inactive)	> 100 µM (inactive)	> 100 µM (inactive)	> 100 µM (inactive)		> 100 µM (inactive)	> 100 µM (inactive)	> 100 µM (inactive)	> 100		> 100 µM (inactive)	> 100 µM (inactive)
Oc1ccc(-c2nc3cc(F)ccc3s2)cc1	36.7 µM (inactive)	19.3 µM (inactive)	23.1 µM (inactive)	19.9 µM (inactive)	22.2 µM (inactive)	20 µM (inactive)	17.5 µM (inactive)	34.1 µM (inactive)	13.2 µM (inactive)	22.9 µM (inactive)	27.4 µM (inactive)	21.3 µM (inactive)	13.5 µM (inactive)	32.3 µM (inactive)	20 µM (inactive)	23.6		31.6 µM (inactive)	20 µM (inactive)
CCN(CC)C1Oc2cc3c(cc2C(c2ccc(OC)cc2)C1C)OCO3 (stereo unspecified)	26.9 µM (inactive)	17.1 µM (inactive)	26.2 µM (inactive)	22.2 µM (inactive)	21.7 µM (inactive)	21.2 µM (inactive)	15.8 µM (inactive)	18.7 µM (inactive)	18.3 µM (inactive)	23.8 µM (inactive)	18.9 µM (inactive)	25.3 µM (inactive)	19 µM (inactive)	21.8 µM (inactive)	18.9 µM (inactive)	18.9	23.4 µM (inactive)	19.5 µM (inactive)	
C(=C\C(SCc1ccccc1)SCc1ccccc1)/c1ccccc1	> 10 µM (inactive)	> 10 µM (inactive)		> 10 µM (inactive)	> 10 µM (inactive)	> 10 µM (inactive)	> 10 µM (inactive)	> 10 µM (inactive)	> 10 µM (inactive)	> 10 µM (inactive)	> 10 µM (inactive)	> 10 µM (inactive)	> 10 µM (inactive)	> 10 µM (inactive)		> 10	> 10 µM (inactive)	> 10 µM (inactive)	> 10 µM (inactive)
C/C(O[Si](C(C)C)(C(C)C)C(C)C)=C(\C)C(=O)N(C)c1ccccc1Cl	> 100 µM (inactive)	> 100 µM (inactive)	> 100 µM (inactive)	> 100 µM (inactive)	> 100 µM (inactive)	> 100 µM (inactive)	> 100 µM (inactive)	> 100 µM (inactive)	> 100 µM (inactive)		> 100 µM (inactive)	> 100 µM (inactive)		> 100 µM (inactive)	> 100 µM (inactive)	> 100	> 100 µM (inactive)	> 100 µM (inactive)	> 100 µM (inactive)
O=C(CN1CCOCC1)NC1=Nc2ncccc2C(=O)NN1	> 10 µM (inactive)	> 10 µM (inactive)	> 10 µM (inactive)	> 10 µM (inactive)	> 10 µM (inactive)	> 10 µM (inactive)	> 10 µM (inactive)	> 10 µM (inactive)	> 10 µM (inactive)	> 10 µM (inactive)	> 10 µM (inactive)	> 10 µM (inactive)		> 10 µM (inactive)	> 10 µM (inactive)	> 10	> 10 µM (inactive)	> 10 µM (inactive)	
O=C(O)CN(c1ccccc1)S(=O)(=O)c1ccccc1[N+](=O)[O-]	> 100 µM (inactive)	> 100 µM (inactive)	> 100 µM (inactive)	> 100 µM (inactive)	> 100 µM (inactive)	> 100 µM (inactive)		> 100 µM (inactive)	> 100 µM (inactive)		> 100 µM (inactive)	> 100 µM (inactive)		> 100 µM (inactive)		> 100		> 100 µM (inactive)	
O=C(O[C@H]1CCN2C[C@H]3C[C@H](CN4C(=O)CCC[C@H]34)[C@@H]2C1)c1ccc(O)cc1	> 100 µM (inactive)	> 100 µM (inactive)	> 100 µM (inactive)	> 100 µM (inactive)	> 100 µM (inactive)	> 100 µM (inactive)	> 100 µM (inactive)	> 100 µM (inactive)	> 100 µM (inactive)	> 100 µM (inactive)	> 100 µM (inactive)	> 100 µM (inactive)	> 100 µM (inactive)	> 100 µM (inactive)	> 100 µM (inactive)	> 100	> 100 µM (inactive)	> 100 µM (inactive)	
Cc1cs/c(=N/c2ccccc2)n1CCC(O)(P(=O)(O)O)P(=O)(O)O	> 100 µM (inactive)	90.6 µM (inactive)	> 100 µM (inactive)			> 100 µM (inactive)	> 100 µM (inactive)	> 100 µM (inactive)	> 100 µM (inactive)	> 100 µM (inactive)	> 100 µM (inactive)		> 100 µM (inactive)	> 100 µM (inactive)		63.1	> 100 µM (inactive)	> 100 µM (inactive)	> 100 µM (inactive)
CC(=O)Oc1cc2c(cc1OC(C)=O)C1(C)CCC2(C)c2cc(OC(C)=O)c(OC(C)=O)cc21	4.75 µM (inactive)	20.8 µM (inactive)	28.4 µM (inactive)		40.3 µM (inactive)	18.3 µM (inactive)		26.5 µM (inactive)	35.8 µM (inactive)		40.7 µM (inactive)	6.9 µM (inactive)	25.1 µM (inactive)	43.2 µM (inactive)		6.92		15 µM (inactive)	
